According to ChEMBL document CHEMBL4411307, “N,N'-diaryl-bishydrazones in a biphenyl platform: Broad spectrum antifungal agents” (Eur J Med Chem, 2019):
≈ marks a conversion by molar mass, not a printed value.

Legend:
[1] = Hemolytic activity in mouse RBC at […] ug/ml after 1 hr relative to control; type: ADME, cell-based, Erythrocyte; details: red blood cells (erythrocytes), read-out: Activity
[2] = Hemolytic activity in mouse RBC at 7.8 ug/ml after 1 hr relative to control; type: ADME, cell-based, Erythrocyte; details: red blood cells (erythrocytes), read-out: Activity
Candida parapsilosis = experiment: Antifungal activity against Candida parapsilosis ATCC 22019 measured after 48 hrs by CLSI M27-A3 protocol based method; type: functional; details: Lodderomyces parapsilosis, ATCC 22019, 48 h
[3] = Hemolytic activity in mouse RBC at 62.5 ug/ml after 1 hr relative to control; type: ADME, cell-based, Erythrocyte; details: red blood cells (erythrocytes), read-out: Activity
[4] = Hemolytic activity in mouse RBC at 1.95 ug/ml after 1 hr relative to control; type: ADME, cell-based, Erythrocyte; details: red blood cells (erythrocytes), read-out: Activity
[5] = Hemolytic activity in mouse RBC at 3.9 ug/ml after 1 hr relative to control; type: ADME, cell-based, Erythrocyte; details: red blood cells (erythrocytes), read-out: Activity
A549 = experiment: Cytotoxicity against human A549 cells after 24 hrs by resazurin based assay; type: cell-based; details: a549, 24 h
Candida albicans [6] = experiment: Antifungal activity against fluconazole/ITC-resistant Candida albicans ATCC 64124 measured after 48 hrs by CLSI M27-A3 protocol based method; type: functional; details: ATCC 64124, 48 h
Aspergillus flavus = experiment: Antifungal activity against Aspergillus flavus ATCC MYA-3631 measured after 48 hrs by CLSI M38-A2 protocol based method; type: functional; details: ATCC MYA-3631, 48 h
Nakaseomyces glabratus = experiment: Antifungal activity against Candida glabrata ATCC 2001 measured after 48 hrs by CLSI M27-A3 protocol based method; type: functional; details: CBS 138, 48 h
Candida albicans [7] = experiment: Antifungal activity against fluconazole/ITC-resistant Candida albicans ATCC MYA-1003 measured after 48 hrs by CLSI M27-A3 protocol based method; type: functional; details: ATCC MYA-1003, 48 h
Aspergillus terreus = experiment: Antifungal activity against Aspergillus terreus ATCC MYA-3633 measured after 48 hrs by CLSI M38-A2 protocol based method; type: functional; details: ATCC MYA-3633, 48 h
Candida albicans [8] = experiment: Antifungal activity against fluconazole/ITC-resistant Candida albicans ATCC 10231 measured after 48 hrs by CLSI M27-A3 protocol based method; type: functional; details: ATCC 10231, 48 h
Pichia kudriavzevii = experiment: Antifungal activity against Candida krusei ATCC 6258 measured after 48 hrs by CLSI M27-A3 protocol based method; type: functional; details: ATCC 6258, 48 h
[9] = Hemolytic activity in mouse RBC at […] after 1 hr relative to control; type: ADME, cell-based, Erythrocyte; details: red blood cells (erythrocytes), read-out: Activity; also: tested at 0.48 µg/mL
Candida albicans [10] = experiment: Antifungal activity against fluconazole/ITC-susceptible Candida albicans ATCC MYA-2310 measured after 48 hrs by CLSI M27-A3 protocol based method; type: functional; details: ATCC MYA-2310, 48 h
Candida albicans [11] = experiment: Antifungal activity against fluconazole/ITC-resistant Candida albicans ATCC 90819 measured after 48 hrs by CLSI M27-A3 protocol based method; type: functional; details: ATCC 90819, 48 h
[12] = Hemolytic activity in mouse RBC at 31.3 ug/ml after 1 hr relative to control; type: ADME, cell-based, Erythrocyte; details: red blood cells (erythrocytes), read-out: Activity
Candida albicans [13] = experiment: Antifungal activity against fluconazole/ITC-susceptible Candida albicans ATCC MYA-2876 measured after 48 hrs by CLSI M27-A3 protocol based method; type: functional; details: ATCC MYA-2876, 48 h
BEAS-2B = experiment: Cytotoxicity against human BEAS2B cells after 24 hrs by resazurin based assay; type: cell-based
Aspergillus nidulans = experiment: Antifungal activity against Aspergillus nidulans ATCC 38163 measured after 48 hrs by CLSI M38-A2 protocol based method; type: functional; details: ATCC 38163, 48 h
Candida albicans [14] = experiment: Antifungal activity against fluconazole/ITC-resistant Candida albicans ATCC MYA-1237 measured after 48 hrs by CLSI M27-A3 protocol based method; type: functional; details: ATCC MYA-1237, 48 h

N=C(N)N/N=C/c1ccc(-c2cccc(/C=N/NC(=N)N)c2)cc1
hemolysis at 1 h, 15.6 ug/ml ([1]; at 15.6 µg/mL): 3.8% | hemolysis at 1 h, 0.975 ug/ml [1]: 0% | hemolysis at 1 h, 7.8 ug/ml [2]: 2.3% | MIC (Candida parapsilosis): 1.95 µg/mL (≈ 6.05 µM) | hemolysis at 1 h, 62.5 ug/ml [3]: 13.1% | hemolysis at 1 h, 1.95 ug/ml [4]: 1.1% | hemolysis at 1 h, 3.9 ug/ml [5]: 1.2% | CC50 (A549): 5.3 µg/mL (≈ 16.4 µM) | MIC (Candida albicans [6]): 3.9 µg/mL (≈ 12.1 µM) | MIC (Aspergillus flavus): > 31.3 µg/mL | MIC (Nakaseomyces glabratus): 3.9 µg/mL (≈ 12.1 µM) | MIC (Candida albicans [7]): > 31.3 µg/mL | MIC (Aspergillus terreus): 7.8 µg/mL (≈ 24.2 µM) | MIC (Candida albicans [8]): 1.95 to 3.9 µg/mL (≈ 6.05 to 12.1 µM) | MIC (Pichia kudriavzevii): 1.95 µg/mL (≈ 6.05 µM) | hemolysis at 1 h, […] [9]: 0% | MIC (Candida albicans [10]): 3.9 µg/mL (≈ 12.1 µM) | MIC (Candida albicans [11]): > 31.3 µg/mL | hemolysis at 1 h, 31.3 ug/ml [12]: 3.8% | MIC (Candida albicans [13]): 3.9 µg/mL (≈ 12.1 µM) | CC50 (BEAS-2B): 2.9 µg/mL (≈ 9 µM) | MIC (Aspergillus nidulans): 7.8 µg/mL (≈ 24.2 µM) | MIC (Candida albicans [14]): 7.8 µg/mL (≈ 24.2 µM)
